{"source": "paper PMC9056410", "about": "“14-Residue peptaibol velutibol A from Trichoderma velutinum: its structural and cytotoxic evaluation” (RSC Advances, 2020)", "key": {"M. tuberculosis H37Rv [1]": {"test_system": "M. tuberculosis H37Rv", "assay": "microbe, parasite or virus in culture", "settings": "Mycobacterium tuberculosis, read-out: Minimum Inhibitory Concentration (MIC)"}, "HL-60 cells [2]": {"test_system": "HL-60 cells", "assay": "Cell cycle analysis, propidium iodide staining, flow cytometry", "assay_type": "cell-based, human", "settings": "24 h, PI staining", "method": "(§1) The cytotoxicity testing of compound 1 was performed against various cell lines, which includes human lung cancer (A549), human colon cancer (LS-180), human myeloid leukemia (HL-60) and human breast cancer (MDA-MB-231) using MTT (3-(4,5-dimethylthiazole-2-yl)-2,5-diphenyltetrazolium bromide). Herein, paclitaxel was used as positive control for cytotoxic assay. […] Further, the cell-cycle assay was performed on HL-60 cell lines. The compound 1 was treated against HL-60 cells at concentrations 5, 10, 20 and 30 μM and incubated for 24 h. […] Apoptotic bodies are small DNA fragments wrapped around the single membrane vesicles mainly formed when cells undergo apoptosis. These apoptotic bodies can be visualized under a fluorescent microscope by using DNA staining dyes such as 4′,6-diamidino-2-phenylindole (DAPI). The HL-60 cells were incubated with the compound 1 at different concentrations (5, 10, 20 and 30 μM) for 24 h. […] The % apoptosis is also represented graphically in Fig. 7.\nThe cell cycle phase distribution analysis in HL-60 cells was carried out by propidium iodide (PI) staining. The HL-60 cells were treated with different concentration (5, 10, 20 and 30 μM) of 1. After 24 h, the cells were centrifuged and collected at 400 × g and washed two times with PBS followed by fixing with ice-cold ethanol (70%). It was incubated overnight at 4 °C. Next day, cells were centrifuged at 4000 rpm, collected and washed with PBS followed by incubation with RNase (0.2 mg mL^−1) for 90 min at 37 °C. It was then stained with PI (10 μg mL^−1) and kept for 30 min in dark. The analysis of cells were carried out through flow-cytometer (FACS Calibur, Becton Dickinson) using list mode on 10 000 events for FL2-A vs. FL2-W. The ModFit software was used for the calculation of fluorescence intensity of the sub-G1 cell fraction representing the apoptotic cell population."}, "M. tuberculosis H37Rv [3]": {"test_system": "M. tuberculosis H37Rv", "settings": "48 h"}, "HL-60 cells [4]": {"test_system": "HL-60 cells", "assay": "Nuclear morphology, DAPI staining, fluorescence microscopy", "assay_type": "cell-based, human", "settings": "HL-60, 5, 10, 20 and 30 μM, 24 h", "method": "as §1\nHL-60 cells were incubated with compound 1 in a 12 well plate. After 24 h, cells were centrifuged at 400 × g, collected and washed two times with PBS. The cells were fixed using 1 mL solution of cold acetic acid in methanol (1 : 3) and incubated overnight at 4 °C. Further, the cells were centrifuged at 400 × g, collected and re-suspended in fixing solution (100 μL). […]"}, "[5]": {"test_system": "human breast cancer (MDA-MB-231)", "assay": "cells", "assay_type": "cell-based", "settings": "MTT, mean ± SD of three experiments, read-out: IC50 ± standard deviation", "method": "as §1\n(§2) The cytotoxic effect of compound 1 on cancer cells was assayed by using MTT dye. The HL-60 cell lines were seeded for 4 h in round bottom 96 well plates. It was then treated with different concentrations of compound 1 dissolved in DMSO and incubated for 48 h. With 3 h earlier to experiment termination, the MTT dye (20 μL) from the stock solution of 2.5 mg mL^−1 was added to each well. The MTT-formazan crystals thus formed were dissolved in DMSO (160 μL) and observed at 570 nm. The untreated control culture was treated with DMSO (<0.2%)."}, "[6]": {"test_system": "human myeloid leukemia (HL-60)", "assay": "cells", "assay_type": "cell-based", "settings": "MTT, mean ± SD of three experiments, read-out: IC50 ± standard deviation", "method": "as §1, §2"}, "[7]": {"test_system": "human colon cancer (LS-180)", "assay": "cells", "assay_type": "cell-based", "settings": "mean ± SD of three experiments, read-out: IC50 ± standard deviation", "method": "as §1, §2"}, "human lung cancer (A549)": {"test_system": "human lung cancer (A549)", "assay": "cells", "assay_type": "cell-based", "settings": "MTT, mean ± SD of three experiments, read-out: IC50 ± standard deviation", "method": "as §1, §2"}, "[8]": {"settings": "48 h incubation, read at 570 nm"}}, "note": "Like-named read-outs stand apart in the source and are kept apart here. Where a SMILES comes first, the peptide text is derived from it. [ ]: non-standard residue; d: D form. Leu(ol) = CC(C)C[C@H](N)CO; Aib = CC(C)(N)C(=O)O"}
{"smiles": "CO[C@H]1/C=C/O[C@@]2(C)Oc3c(C)c(O)c4c(O)c(c(/C=N/N5CCN(C)CC5)c(O)c4c3C2=O)NC(=O)/C(C)=C\\C=C\\[C@H](C)[C@H](O)[C@@H](C)[C@@H](O)[C@@H](C)[C@H](OC(C)=O)[C@@H]1C", "note": "[Rifampicin]", "values": [{"measurement": "MIC", "setting": "M. tuberculosis H37Rv [1]", "result": 0.06, "unit": "µg/mL"}]}
{"smiles": "CC(=O)NC(C)(C)C(=O)N[C@@H](CCC(N)=O)C(=O)N[C@@H](CC(C)C)C(=O)NC(C)(C)C(=O)N1CCC[C@H]1C(=O)N[C@H](C(=O)N[C@@H](CC(C)C)C(=O)NC(C)(C)C(=O)N1CCC[C@H]1C(=O)NC(C)(C)C(=O)NC(C)(C)C(=O)NC(C)(C)C(=O)N1CCC[C@H]1C(=O)N[C@H](CO)CC(C)C)C(C)C", "note": "[compound 1, Velutibol A] (Ac-[Aib]QL[Aib]PVL[Aib]P[Aib][Aib][Aib]P[Leu(ol)])", "values": [{"measurement": "Apop (apoptotic DNA population, sub-G1)", "setting": "HL-60 cells [2]; HL-60, 10 μM", "result": 70, "unit": "%"}, {"measurement": "Apop (apoptotic DNA population, sub-G1)", "setting": "HL-60 cells [2]; HL-60, 20 μM", "result": 85, "unit": "%"}, {"measurement": "Apop (apoptotic DNA population, sub-G1)", "setting": "HL-60 cells [2]; HL-60, 30 μM", "result": 99, "unit": "%"}, {"measurement": "Minimum Inhibitory Concentration (MIC)", "setting": "M. tuberculosis H37Rv [3]", "result": 32, "unit": "µg/mL"}, {"measurement": "Formation of apoptotic bodies", "setting": "HL-60 cells [4]", "result": "increased in a dose-dependent manner"}, {"measurement": "IC50", "setting": "[5]; [8]", "result": "7 ± 0.2", "unit": "µM"}, {"measurement": "IC50", "setting": "[6]; [8]", "result": "4 ± 0.1", "unit": "µM"}, {"measurement": "IC50", "setting": "[7]; MTT, 48 h incubation, read at 570 nm", "result": "26 ± 1.1", "unit": "µM"}, {"measurement": "IC50", "setting": "human lung cancer (A549); [8]", "result": "23 ± 0.8", "unit": "µM"}]}
{"smiles": "CC(=O)O[C@H]1C(=O)[C@@]2(C)[C@H]([C@H](OC(=O)c3ccccc3)[C@]3(O)C[C@H](OC(=O)[C@H](O)[C@@H](NC(=O)c4ccccc4)c4ccccc4)C(C)=C1C3(C)C)[C@]1(OC(C)=O)CO[C@@H]1C[C@@H]2O", "note": "[Paclitaxel, paclitaxel, reference compound]", "values": [{"measurement": "IC50", "setting": "[5]; Homo sapiens, positive control", "result": "0.0033 ± 0.0001", "unit": "µM"}, {"measurement": "IC50", "setting": "[6]; Homo sapiens, positive control", "result": "0.0018 ± 0.0001", "unit": "µM"}, {"measurement": "IC50", "setting": "[7]; Homo sapiens, LS180, MTT, positive control", "result": "0.0022 ± 0.0001", "unit": "µM"}, {"measurement": "IC50", "setting": "human lung cancer (A549); Homo sapiens, positive control", "result": "0.0062 ± 0.0001", "unit": "µM"}]}
